Reference: patent publication US8952024B2, “Herbicidal pyrimidone derivatives” (E I du Pont de Nemours and Company, priority 2009, dated 2015)

Key:
Test in all cases: Test B pre-/postemergence plant response
Format in all cases: in vivo
[1] = test system: Surinam grass (Brachiaria decumbens)
How it was run: (§1)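 Test compounds, formulated in a non-phytotoxic solvent mixture with surfactant, are applied to the soil surface (loam and sand blend) right after seeding, or sprayed over plants at the 1- to 4-leaf stage grown in peat moss/vermiculite medium. After 13 to 15 days under glasshouse conditions, each species is scored visually from 0 (no effect) to 100 (complete control) against controls.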

[2] = test system: lambsquarters (Chenopodium album)
How it was run: as §1

[3] = test system: sunflower (common oilseed sunflower, Helianthus annuus); conditions: Preemergence
How it was run: as §1

[4] = test system: large crabgrass (Digitaria sanguinalis)
How it was run: as §1

corn (Zea mays) = test system: corn (Zea mays)
How it was run: as §1

[5] = test system: galium (catchweed bedstraw, Galium aparine); conditions: Preemergence
How it was run: as §1

[6] = test system: goosegrass (Eleusine indica)
How it was run: as §1

[7] = test system: nightshade (eastern black nightshade, Solanum ptycanthum); conditions: Preemergence
How it was run: as §1

[8] = test system: pigweed (Amaranthus retroflexus)
How it was run: as §1

[9] = test system: Italian ryegrass (Lolium multiflorum)
How it was run: as §1

[10] = test system: woolly cupgrass (Eriochloa villosa)
How it was run: as §1

[11] = Postemergence, 31 g ai/ha, 0 to 100 scale (0 no effect, 100 complete control)
[12] = Postemergence, 250 g ai/ha, scale 0 to 100 (0 no effect, 100 complete control), 13 to 15 days
[13] = Postemergence, 62 g ai/ha, scale 0 to 100 (0 no effect, 100 complete control)
[14] = Preemergence, 31 g ai/ha, scale 0 to 100 (0 no effect, 100 complete control)
[15] = Preemergence, 62 g ai/ha, scale 0 to 100, 0 no effect, 100 complete control
[16] = Preemergence, 125 g ai/ha, scale 0 to 100, 0 no effect, 100 complete control
[17] = Preemergence, 250 g ai/ha, 0 to 100 scale
[18] = Postemergence, 125 g ai/ha, scale 0 to 100 (0 no effect, 100 complete control)
[19] = 31 g ai/ha, scale 0 to 100 (0 no effect, 100 complete control)
[20] = 62 g ai/ha, scale 0 to 100, 0 no effect, 100 complete control
[21] = 125 g ai/ha, scale 0 to 100, 0 no effect, 100 complete control

CCCc1ncc(C(=O)C2=C(O)CCCC2=O)c(=O)n1-c1ccccc1 [Compound 217]
Plant response rating, Surinam Grass [1, 11]: 70
Plant response rating, Surinam Grass [1, 12]: 95
Plant response rating, Surinam Grass [1, 13]: 80
Plant response rating, Surinam Grass [1, 14]: 45
Plant response rating, Surinam Grass [1, 15]: 75
Plant response rating, Surinam Grass [1, 16]: 85
Surinam Grass plant response rating [1, 17]: 90
Plant response rating, Lambsquarters [2, 11]: 90
Plant response rating, Lambsquarters [2, 18]: 100
Plant response rating, Lambsquarters [2, 12]: 100
Plant response rating, Lambsquarters [2, 13]: 100
Plant response rating, Lambsquarters [2, 14]: 95
Plant response rating, Lambsquarters [2, 15]: 100
Plant response rating, Lambsquarters [2, 16]: 100
Lambsquarters plant response rating [2, 17]: 100
Plant response rating, Sunflower [3, 19]: 70
Plant response rating, Sunflower [3, 20]: 75
Plant response rating, Sunflower [3, 21]: 85
Sunflower plant response rating ([3]; 250 g ai/ha, 0 to 100 scale): 85
Plant response rating, Crabgrass, Large [4, 11]: 80
Plant response rating, Crabgrass, Large [4, 18]: 90
Plant response rating, Crabgrass, Large [4, 12]: 98
Plant response rating, Crabgrass, Large [4, 13]: 85
Plant response rating, Crabgrass, Large [4, 14]: 95
Plant response rating, Crabgrass, Large [4, 15]: 100
Plant response rating, Crabgrass, Large [4, 16]: 100
Crabgrass, Large plant response rating [4, 17]: 100
Plant response rating, Corn (corn (Zea mays); [11]): 0
Plant response rating, Corn (corn (Zea mays); [18]): 25
Plant response rating, Corn (corn (Zea mays); [12]): 35
Plant response rating, Corn (corn (Zea mays); [13]): 10
Plant response rating, Corn (corn (Zea mays); [14]): 0
Plant response rating, Corn (corn (Zea mays); [15]): 0
Plant response rating, Corn (corn (Zea mays); [16]): 0
Corn plant response rating (corn (Zea mays); [17]): 0
Plant response rating, Galium [5, 19]: 0
Plant response rating, Galium [5, 20]: 10
Plant response rating, Galium [5, 21]: 70
Galium plant response rating ([5]; 250 g ai/ha, 0 to 100 scale): 90
Plant response rating, Goosegrass [6, 11]: 80
Plant response rating, Goosegrass [6, 18]: 85
Plant response rating, Goosegrass [6, 12]: 95
Plant response rating, Goosegrass [6, 13]: 80
Plant response rating, Goosegrass [6, 14]: 95
Plant response rating, Goosegrass [6, 15]: 98
Plant response rating, Goosegrass [6, 16]: 100
Goosegrass plant response rating [6, 17]: 100
Plant response rating, Nightshade [7, 19]: 95
Plant response rating, Nightshade [7, 20]: 100
Plant response rating, Nightshade [7, 21]: 100
Nightshade plant response rating ([7]; 250 g ai/ha, 0 to 100 scale): 100
Plant response rating, Pigweed [8, 11]: 85
Plant response rating, Pigweed [8, 12]: 100
Plant response rating, Pigweed [8, 13]: 100
Plant response rating, Pigweed [8, 14]: 95
Plant response rating, Pigweed [8, 15]: 100
Plant response rating, Pigweed [8, 16]: 100
Pigweed plant response rating [8, 17]: 100
Plant response rating, Ryegrass, Italian [9, 11]: 0
Plant response rating, Ryegrass, Italian [9, 12]: 40
Plant response rating, Ryegrass, Italian [9, 13]: 30
Plant response rating, Ryegrass, Italian [9, 14]: 0
Plant response rating, Ryegrass, Italian [9, 15]: 0
Plant response rating, Ryegrass, Italian [9, 16]: 5
Ryegrass, Italian plant response rating [9, 17]: 10
Plant response rating, Cupgrass, Woolly [10, 11]: 25
Plant response rating, Cupgrass, Woolly [10, 18]: 45
Plant response rating, Cupgrass, Woolly [10, 12]: 55
Plant response rating, Cupgrass, Woolly [10, 13]: 45
Plant response rating, Cupgrass, Woolly [10, 14]: 0
Plant response rating, Cupgrass, Woolly [10, 15]: 5
Plant response rating, Cupgrass, Woolly [10, 16]: 65
Cupgrass, Woolly plant response rating [10, 17]: 80
